Results as given in patent publication US6689762B1, “Composition and methods for treatment of HIV infection” (Enzon Pharmaceuticals, Inc., priority 1998, dated 2004).
Several values for one entry are separate records, joined by “and”; a condition that tells them apart may be missing. Equal values may be shown once. Read-outs that look alike come from different tables or passages of the source.

Tests used:
CEM/0 cells = experiment: cells; format: cell-based, human; conditions: for IC50: Homo sapiens, CCRF-CEM
Description: A human leukemic T-cell line, hereafter referred to as CEM/0 is used for this experiment. PEG-ASNase is obtained from Rhone-Poulenc Rorer Pharmaceuticals Inc under the tradename Oncaspar®. Saquinavir is obtained from Roche Laboratories under the tradename Invirase™. RPMI-1640 media obtained from Irvine Scientific, Irvine Calif. is enriched with 10% Fetal Calf Serum obtained from Gemini Biosource, Calabasas, Calif., 5% 1M Hepes buffer solution and 5% non-essential amino acids obtained from Irvine Scientific, Irvine Calif.
An experiment is carried out to determine the cytotoxicity of Saquinavir and PEG-ASNase. For determining the cytotoxicity of either compound alone, 2×10^5 cells/ml are incubated in 24-well plates with the following drug concentrations:
In all in vitro studies, the negative control cells are incubated in a drug-free media for the same duration and under the same conditions as the experimental samples. Cell density is measured via cell counting using a Coulter Counter coupled with a Coulter Channelyzer for each of the experimental flasks at 24, 48 and 72 hours after incubation. Additionally, Trypan Blue Exclusion tests are performed for each of these experimental conditions. Cell numbers are corrected for the viability determined by the Trypan Blue test and presented as a percentage of the untreated control.

[1] = system: asparagine, glutamine, and aspartic acid levels of CEM/0 cells; experiment: Determination of amino acid levels after PEG-ASNase exposure (HPLC); format: cell-based, human; conditions: 24 hours exposure
Procedure: Experiments to determine the amino acid level in cell suspensions and cell media are performed to determine the effect of PEG-ASNase on the amino acid levels, particularly the levels of asparagine, glutamine, and aspartic acid.
Samples of 50 μl media and 10 μl of 1 mM aminoadopic acid are added to 450 μl of cold methanol in 1.5 ml microfuge tubes. The mixtures are vortexed and centrifuged at 8700 g for two minutes. The supernatants are transferred to borosilicate glass test tubes (13×100 mm) and lyophilized. The specimens are stored at −20° C. until they are analyzed by HPLC. Prior to HPLC analysis, the samples are dissolved in a buffer containing 95% […] disodium hydrogen phosphate and 5% acetonitrile.

Row | Molecule | IC50 (CEM/0 cells; 72 h, read-out: IC50 in CEM/0 cells) | IC50 (CEM/0 cells; read-out: IC50 in CEM/0 cells) | IC50 (CEM/0 cells; read-out: Saquinavir IC50 alone) | kill compared to untreated control (CEM/0 cells; Saquinavir 10 μM) | kill compared to control cells (CEM/0 cells; Saquinavir 100 μM, highest concentration tested) | cell kill (CEM/0 cells; Saquinavir 0.001 to 1 μM) | PEG-ASNase IC50 alone (CEM/0 cells; CEM/0 T-cells, single agent) | concentration that produces a cytostatic condition (CEM/0 cells; CEM/0 cells in vitro, over 72 hours) | effect on cell growth (CEM/0 cells; PEG-ASNase 0.03, 0.1, 0.2, 0.3 and 0.4 IU/ml, compared to control growth rate) | glutamine level, % of the untreated control ([1]; highest PEG-ASNase concentration) | asparagine level, % of the untreated control ([1]; various PEG-ASNase concentrations)
1 | CC(C)(C)NC(=O)[C@@H]1C[C@@H]2CCCC[C@@H]2CN1C[C@@H](O)[C@H](Cc1ccccc1)NC(=O)[C@H](CC(N)=O)NC(=O)c1ccc2ccccc2n1 [Saquinavir] | 26 µM | 21 to 28 µM | 25 µM | 8.76% | 99.50% | no cell kill | – | – | – | – | –
2 | PEG-ASNase: asparaginase conjugated with polyethylene glycol (PEG); sold under the name ONCASPAR by Rhône-Poulenc Rorer (conjugate, UniProt P00805 23-348, looked up, PEG conjugate (pegaspargase), asparaginase conjugated with polyethylene glycol (PEG); sold under the name ONCASPAR by Rhône-Poulenc Rorer) L-asparaginase 2: LPNITILATGGTIAGGGDSATKSNYTVGKVGVENLVNAVPQLKDIANVKGEQVVNIGSQDMNDNVWLTLAKKINTDCDKTDGFVITHGTDTMEETAYFLDLTVKCDKPVVMVGAMRPSTSMSADGPFNLYNAVVTAADKASANRGVLVVMNDTVLDGRDVTKTNTTDVATFKSVNYGPLGYIHNGKIDYQRTPARKHTSDTPFDVSKLNELPKVGIVYNYANASDLPAKALVDAGYDGIVSAGVGNGNLYKSVFDTLATAAKTGTAVVRSSRVPTGATTQDAEVDDAKYGFVASGTLNPQKARVLLQLALTQTKDPQQIQQIFNQY | – | – | – | – | – | – | 0.4 IU/ml and 0.40 IU/ml | approximately 0.5 IU/ml | marginally effective in preventing cell growth | less than 3.0% | less than 3.0%
